Test systems include ACHN; IGROV-1; A498; SF-295; TK-10; MCF7; EKVX; CCRF-CEM; U-251; DU-145; UACC-257; HOP-62; Hs-578T; NCI-H460; MDA-MB-435; RPMI-8226; OVCAR-8; MDA-N.
Assay in all cases: NCI tumour cell line growth inhibition, 48 h

Each structure is given as a SMILES string.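 These data come from cells grown in 96-well plates and exposed to compound for 48 hours at five concentrations. GI50: concentration for 50% inhibition of growth.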 Calls of active or inactive are those of the source. Rule as the data show it: active = GI50 up to about 1.1 µM and inactive = higher.

As to `CCCNC(=O)OCc1c(COC(=O)NCCC)c(-c2ccc(Cl)c(Cl)c2)n2c1CCC2`, the GI50 in the test with ACHN was 2.01 µM (inactive); with IGROV-1 it was 1.05 µM (active); in the test with A498 it was 1.26 µM (inactive); in the test with SF-295 it was 2.95 µM (inactive); in the test on TK-10, 1.86 µM (inactive); in the test on MCF7, 5.75 µM (inactive). For the same compound, the GI50 in the test with EKVX is 11.2 µM (inactive); in the test with CCRF-CEM it was 1.98 µM (inactive); with U-251 it was 4.98 µM (inactive); in the test with DU-145, 7 µM (inactive); in the test with UACC-257, 4.79 µM (inactive); with HOP-62 it was 6.01 µM (inactive). Moreover, the GI50 with Hs-578T is 6.56 µM (inactive); in the test with NCI-H460, 3.57 µM (inactive); with MDA-MB-435, 11.5 µM (inactive); in the test with RPMI-8226, 5.02 µM (inactive); with OVCAR-8, 4.36 µM (inactive).

On to `CCOC(=O)c1c(-c2ccc(OC)cc2)c(C#N)c(=S)n(C2OC(COC(C)=O)C(OC(C)=O)C(OC(C)=O)C2OC(C)=O)c1C` (stereo not given), for which the GI50 in the test on ACHN was 58.2 µM (inactive); in the test on IGROV-1 it was > 100 µM (inactive); in the test with A498, > 100 µM (inactive); with SF-295 it was > 100 µM (inactive); with TK-10, > 100 µM (inactive); in the test with MCF7, > 100 µM (inactive). In addition, the GI50 in the test on EKVX was 78.2 µM (inactive); with CCRF-CEM, 61.9 µM (inactive); in the test on U-251, > 100 µM (inactive); in the test with DU-145, > 100 µM (inactive); with UACC-257 it was > 100 µM (inactive); in the test on HOP-62, > 100 µM (inactive). Also, the GI50 with NCI-H460, in the test on MDA-N, in the test with MDA-MB-435 and in the test on OVCAR-8 was > 100 µM (inactive) throughout.

`CSS(C)(=O)=O`: the GI50 was 26.2 µM (inactive) in the test on ACHN; 23.2 µM (inactive) with IGROV-1; > 100 µM (inactive) in the test on A498; 23.1 µM (inactive) in the test on SF-295; 24.7 µM (inactive) in the test with TK-10; 26.7 µM (inactive) in the test with MCF7. Moreover, the GI50 is 27.9 µM (inactive) in the test with EKVX; < 0.01 µM (active) with CCRF-CEM; 37.1 µM (inactive) in the test with U-251; 21.5 µM (inactive) in the test on DU-145; 23.9 µM (inactive) with UACC-257; 44.2 µM (inactive) in the test with HOP-62. For the same compound, the GI50 in the test on Hs-578T is 49.2 µM (inactive); in the test on NCI-H460, > 100 µM (inactive); in the test on MDA-MB-435, 20.2 µM (inactive); with RPMI-8226, 1.95 µM (inactive); in the test on OVCAR-8 it was 27.4 µM (inactive).

With `COc1ccc2nc3c([N+](=O)[O-])ccc(NCCN(C)C)c3c(N)c2c1`, the GI50 is 1.09 µM (active) in the test on ACHN; 1.15 µM (inactive) with IGROV-1; 2.07 µM (inactive) with A498; 1.75 µM (inactive) with SF-295; 1.6 µM (inactive) in the test with TK-10; 0.513 µM (active) in the test with MCF7. The GI50 with EKVX is 1.71 µM (inactive); in the test with CCRF-CEM, 0.17 µM (active); in the test on U-251, 1.66 µM (inactive); with DU-145 it was 1.75 µM (inactive); in the test on UACC-257, 1.91 µM (inactive); with HOP-62 it was 1.66 µM (inactive). The GI50 is 2.62 µM (inactive) with Hs-578T; 1.47 µM (inactive) in the test on NCI-H460; 1.73 µM (inactive) in the test on MDA-N; 0.0703 µM (active) in the test with RPMI-8226; 1.66 µM (inactive) with OVCAR-8.

As for `C/C(Cl)=N\OC(=O)Nc1ccc(C)cc1`, the GI50 in the test with ACHN is 15.7 µM (inactive); in the test on IGROV-1, 16.7 µM (inactive); in the test on A498 it was 18.8 µM (inactive); in the test with SF-295 it was 16.6 µM (inactive); with TK-10, 15.2 µM (inactive); in the test on MCF7, 11.9 µM (inactive). Besides, the GI50 in the test with EKVX was 18.3 µM (inactive); in the test with CCRF-CEM, 2.04 µM (inactive); with U-251, 16.3 µM (inactive); with DU-145 it was > 10 µM (inactive); in the test with UACC-257 it was 18.7 µM (inactive); in the test with HOP-62, 46.9 µM (inactive). Moreover, the GI50 in the test on Hs-578T is 28.6 µM (inactive); in the test on NCI-H460 it was 18.1 µM (inactive); with MDA-N, 16.3 µM (inactive); in the test on RPMI-8226, > 10 µM (inactive); in the test with OVCAR-8 it was 17.9 µM (inactive).

Regarding `C/C(=N/NC(=S)Nc1ccc([N+](=O)[O-])cc1)c1cccc(/C(C)=N\NC(=S)Nc2ccc([N+](=O)[O-])cc2)n1`, the GI50 with ACHN is 0.126 µM (active); in the test on IGROV-1, 0.569 µM (active); in the test on A498, 1.09 µM (active); in the test on SF-295, 0.564 µM (active); in the test with TK-10 it was 0.577 µM (active); in the test with MCF7, 0.341 µM (active). The GI50 with EKVX is 0.658 µM (active); with CCRF-CEM it was 0.318 µM (active); with U-251, 0.547 µM (active); in the test on UACC-257 it was 1.09 µM (active); in the test with HOP-62 it was 0.752 µM (active); with Hs-578T it was 3.9 µM (inactive). Further, the GI50 with NCI-H460 was 0.34 µM (active); in the test with MDA-N, 2.35 µM (inactive); with MDA-MB-435 it was 0.931 µM (active); with RPMI-8226, 0.491 µM (active); in the test on OVCAR-8 it was 0.329 µM (active).

For `COC(=O)/C=C/c1ccc2c(c1)CC1(Cc3ccccc3C1)C2`, the GI50 with ACHN, with IGROV-1, in the test on A498, in the test on SF-295, with TK-10 and in the test with MCF7 was > 100 µM (inactive) each time. Further, the GI50 in the test on EKVX was 23.6 µM (inactive); in the test on CCRF-CEM it was 28 µM (inactive); with U-251, > 100 µM (inactive); in the test on UACC-257, > 100 µM (inactive); in the test on HOP-62, > 100 µM (inactive); with Hs-578T, 23.6 µM (inactive). Also, the GI50 was 87.5 µM (inactive) with MDA-N, 41.3 µM (inactive) in the test with MDA-MB-435, 60.7 µM (inactive) with RPMI-8226 and > 100 µM (inactive) with OVCAR-8.

As for `CCOP(C)(=O)C(Cc1c[nH]c2ccccc12)C(=O)O` (stereo not given), the GI50 in the test on ACHN, with IGROV-1, in the test with A498, in the test on SF-295, in the test on MCF7 and in the test with EKVX was > 100 µM (inactive) in each case. Also, the GI50 with CCRF-CEM, in the test with U-251, in the test with DU-145, in the test with HOP-62, with MDA-N and in the test on MDA-MB-435 was > 100 µM (inactive) each time. In addition, the GI50 in the test on RPMI-8226 and with OVCAR-8 was > 100 µM (inactive) throughout.

Take `COc1ccc(/C=C/C(=N/NC(=O)N/N=C(/C=C/c2ccc(OC)cc2)C(C)(C)CN2CCCCC2)C(C)(C)CN2CCCCC2)cc1`: the GI50 with ACHN is 1.75 µM (inactive); in the test on IGROV-1 it was 2.27 µM (inactive); in the test with A498, 2.22 µM (inactive); with SF-295, 1.87 µM (inactive); in the test with TK-10, 2.01 µM (inactive); with MCF7 it was 2.35 µM (inactive). Further, the GI50 in the test with EKVX is 2.8 µM (inactive); in the test with CCRF-CEM, 1.27 µM (inactive); in the test on U-251 it was 1.85 µM (inactive); in the test on DU-145 it was > 10 µM (inactive); in the test with UACC-257, 1.86 µM (inactive); in the test on HOP-62, 2.15 µM (inactive). For the same compound, the GI50 in the test on Hs-578T is 1.87 µM (inactive); with NCI-H460, 1.65 µM (inactive); with MDA-N, 1.64 µM (inactive); in the test with RPMI-8226, 1.69 µM (inactive); with OVCAR-8 it was 1.8 µM (inactive).

For `CC(=O)Oc1cc(/C=C/c2ccc(O)cc2)cc(OC(C)=O)c1`, the GI50 is 9.59 µM (inactive) with ACHN; 64.9 µM (inactive) with IGROV-1; 25.4 µM (inactive) in the test with A498; 28.8 µM (inactive) in the test on SF-295; 24.9 µM (inactive) in the test with TK-10; 40 µM (inactive) in the test with MCF7. In addition, the GI50 in the test on U-251 is 29.9 µM (inactive); with DU-145, 27.2 µM (inactive); in the test on UACC-257, 30.9 µM (inactive); in the test on HOP-62, 48.2 µM (inactive); with Hs-578T it was 58.5 µM (inactive); in the test on NCI-H460, 33.9 µM (inactive). For the same compound, the GI50 with MDA-MB-435 was 28.1 µM (inactive); in the test on RPMI-8226, 4.7 µM (inactive); in the test with OVCAR-8 it was 35.8 µM (inactive).

On to `O=S(=O)(O)c1cc(/N=N/c2c(O)ccc3ccccc23)cc2c(S(=O)(=O)O)cccc12`, for which the GI50 in the test with ACHN, with IGROV-1, in the test on A498, in the test with SF-295, in the test with TK-10 and in the test on MCF7 was > 100 µM (inactive) each time. The GI50 with EKVX, in the test on CCRF-CEM, in the test with U-251, in the test on UACC-257, in the test on HOP-62 and in the test on Hs-578T was > 100 µM (inactive) each time. Further, the GI50 in the test on NCI-H460, in the test with MDA-MB-435, with RPMI-8226 and in the test on OVCAR-8 was > 100 µM (inactive) each time.

For `c1ccc(SC(Sc2ccccc2)c2ccc3c(c2)OCO3)cc1`, the GI50 with ACHN was > 100 µM (inactive); in the test with IGROV-1, > 100 µM (inactive); in the test with A498, 90.2 µM (inactive); in the test with SF-295, > 100 µM (inactive); in the test with TK-10, > 100 µM (inactive); with EKVX, 37.2 µM (inactive). Further, the GI50 in the test on CCRF-CEM, in the test with U-251, with DU-145, in the test on UACC-257, in the test on HOP-62 and in the test on Hs-578T was > 100 µM (inactive) each time. Moreover, the GI50 was > 100 µM (inactive) with NCI-H460, 88.9 µM (inactive) in the test with MDA-N, > 100 µM (inactive) in the test with MDA-MB-435 and > 100 µM (inactive) with OVCAR-8.
